# From patent US20120101095A1, “ALKOXY-THIENOPYRIMIDINES AS TGF-BETA RECEPTOR KINASE MODULATORS” (priority 2009, published 2012)
# pIC50: −log10 of the molar value.
# Target: T1, GST-ALK5 (Homo sapiens, UniProt P36897)
# T1 sequence (P36897 34-503): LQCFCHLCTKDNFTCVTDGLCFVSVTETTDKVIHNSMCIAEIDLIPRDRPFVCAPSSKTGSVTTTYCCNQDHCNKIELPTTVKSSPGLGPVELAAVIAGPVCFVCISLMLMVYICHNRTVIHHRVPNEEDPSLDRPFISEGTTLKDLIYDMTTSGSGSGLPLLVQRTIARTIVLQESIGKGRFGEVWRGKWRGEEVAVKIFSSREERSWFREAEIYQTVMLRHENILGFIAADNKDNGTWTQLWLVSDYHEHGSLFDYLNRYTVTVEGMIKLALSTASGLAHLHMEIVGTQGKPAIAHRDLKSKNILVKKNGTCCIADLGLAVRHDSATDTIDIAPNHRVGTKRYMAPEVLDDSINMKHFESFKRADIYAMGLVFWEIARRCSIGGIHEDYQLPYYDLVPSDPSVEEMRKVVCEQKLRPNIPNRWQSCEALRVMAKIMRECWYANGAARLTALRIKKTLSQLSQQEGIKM
# Assay: In-vitro (enzyme) kinase assay, 384-well flashplate, GST-SMAD2 substrate
# Assay type: biochemical
# Conditions: 31.2 nM GST-ALK5, 439 nM GST-SMAD2, 3 mM ATP, 30° C., 45 min
row,pIC50,Structure (SMILES)
1,> 7.00,"NC(=O)c1sc2nc(OC[C@H]3C[C@@H]3CO)nc(-c3cccc(Cl)c3)c2c1N [No 60, 5-Amino-4-(3-chloro-phenyl)-2-((1S,2S)-2-hydroxymethyl-cyclopropylmethoxy)-thieno[2,3-d]pyrimidine-6-carboxylic acid amide]"
2,6.30 to 7.00,"NC(=O)c1sc2nc(OC[C@H]3CCC(=O)N3)nc(-c3cccc(Cl)c3)c2c1N [No 77, 5-Amino-4-(3-chloro-phenyl)-2-((R)-5-oxo-pyrrolidin-2-ylmethoxy)-thieno[2,3-d]pyrimidine-6-carboxylic acid amide]"
3,> 7.00,"Cc1ncsc1CCOc1nc(-c2cccc(Cl)c2)c2c(N)c(C(N)=O)sc2n1 [No 51, 5-Amino-4-(3-chloro-phenyl)-2-[2-(4-methyl-thiazol-5-yl)-ethoxy]-thieno[2,3-d]pyrimidine-6-carboxylic acid amide]"
4,> 7.00,"Cn1nccc1COc1nc(-c2cccc(Cl)c2)c2c(N)c(C(N)=O)sc2n1 [No 47, 5-Amino-4-(3-chloro-phenyl)-2-(2-methyl-2H-pyrazol-3-ylmethoxy)-thieno[2,3-d]pyrimidine-6-carboxylic acid amide]"

# Second part, the compound before the results:
row,Structure (SMILES),pIC50
1,"Cc1cccc(-c2nc(OCc3ccc(OCCN4CCOCC4)cc3)nc3sc(C(N)=O)c(N)c23)n1 [No 35, 5-Amino-4-(6-methyl-pyridin-2-yl)-2-[4-(2-morpholin-4-yl-ethoxy)-benzyloxy]-thieno[2,3-d]pyrimidine-6-carboxylic acid amide]",6.30 to 7.00
2,"COc1nc(-c2ccc(C)o2)c2c(N)c(C(N)=O)sc2n1 [No 19, 5-Amino-2-methoxy-4-(5-methyl-furan-2-yl)-thieno[2,3-d]pyrimidine-6-carboxylic acid amide]",> 7.00
3,"NC(=O)c1sc2nc(OCCN3CCOCC3=O)nc(-c3cccc(Cl)c3)c2c1N [No 55, 5-Amino-4-(3-chloro-phenyl)-2-[2-(3-oxo-morpholin-4-yl)-ethoxy]-thieno[2,3-d]pyrimidine-6-carboxylic acid amide]",> 7.00
4,"NC(=O)c1sc2nc(OCCO)nc(-c3cccc(C(F)(F)F)c3)c2c1N [No 15, 5-Amino-2-(2-hydroxy-ethoxy)-4-(3-trifluoromethyl-phenyl)-thieno[2,3-d]pyrimidine-6-carboxylic acid amide]",6.00 to 6.30
